Assay results reported in publication PMC4113800 (Marine Drugs, 2014).

Key:
P-gp = target: T1, P-gp (Homo sapiens, UniProt P08183); assay type: cell-based; details: compound or verapamil 20 μM vs PBS; calcein AM […]; SW620 Ad300; further: calcein AM 0.25 µM
T1 construct: The drug-resistant P-gp over-expressing daughter cell line SW620 Ad300 was established by stepwise selection; endogenous in cells; host or cells: SW620 Ad300 (human colon cancer, doxorubicin-selected)
Method: (§1) Flow cytometry based assays were used to measure the ability of natural or synthetic compounds to inhibit P-gp, BCRP or MRP1 mediated accumulation and/or efflux of fluorescent reagents. […] For the calcein AM accumulation assays, cells were directly analyzed by flow cytometry.
(§2) Intracellular fluorescence intensity was measured on a BD FACSCanto™ II flow cytometer (Becton Dickinson, San Jose, CA, USA) and data were analyzed through FlowJo (Tree Star, Inc., Ashland, OR, USA). […] Mitoxantrone fluorescence was detected with a 638 nm […] laser and a 660/20 nm band-pass filter. At least 10,000 events were collected for all of the flow cytometry experiment. By increasing threshold value on forward scatter versus side scatter, debris was eliminated. Dead cells were excluded based on propidium iodide staining. Data are means ± SEM of at least three independent experiments performed in duplicate.

[1] = MTT cytotoxicity assay, P-gp over-expressing SW620 Ad300 cells; assay type: cell-based; details: human
Method: (§3) The MTT assay was modified based on that previously described, using adherent cell lines SW620 and NCI-H460, and their P-gp over-expressing daughter cell line SW620 Ad300 and BCRP over-expressing daughter cell line NCI-H460/MX20, respectively. Briefly, cells were harvested with trypsin and added into 96-well microtitre assay plates at 2000 cells/well, followed by 18 h incubation at 37 °C with 5% CO2. […] Control wells were treated with 5% aqueous DMSO. […] 68 h later, 20 μL MTT (4 mg/mL in PBS) was dispensed into each well (final concentration 0.40 mg/mL), and plates were incubated for a further 4 h at 37 °C with 5% CO2. Finally medium was removed and precipitated formazan crystals were dissolved in 100% DMSO. The absorbance of each well was measured at 580 nm with a PowerWave XS Microplate Reader from Bio-Tek Instruments Inc. (Vinooski, VT, USA).
(§4) All experiments were performed in duplicate.

BCRP [2] = target: T2, BCRP (Homo sapiens, UniProt Q9UNQ0); test: cell-based; details: for FAR (fluorescence arbitrary ratio), mitoxantrone fluorescence / % FTC (inhibition of mitoxantrone efflux normalized to 10 μM FTC): NCI-H460/MX20
T2 sequence (Q9UNQ0 1-655): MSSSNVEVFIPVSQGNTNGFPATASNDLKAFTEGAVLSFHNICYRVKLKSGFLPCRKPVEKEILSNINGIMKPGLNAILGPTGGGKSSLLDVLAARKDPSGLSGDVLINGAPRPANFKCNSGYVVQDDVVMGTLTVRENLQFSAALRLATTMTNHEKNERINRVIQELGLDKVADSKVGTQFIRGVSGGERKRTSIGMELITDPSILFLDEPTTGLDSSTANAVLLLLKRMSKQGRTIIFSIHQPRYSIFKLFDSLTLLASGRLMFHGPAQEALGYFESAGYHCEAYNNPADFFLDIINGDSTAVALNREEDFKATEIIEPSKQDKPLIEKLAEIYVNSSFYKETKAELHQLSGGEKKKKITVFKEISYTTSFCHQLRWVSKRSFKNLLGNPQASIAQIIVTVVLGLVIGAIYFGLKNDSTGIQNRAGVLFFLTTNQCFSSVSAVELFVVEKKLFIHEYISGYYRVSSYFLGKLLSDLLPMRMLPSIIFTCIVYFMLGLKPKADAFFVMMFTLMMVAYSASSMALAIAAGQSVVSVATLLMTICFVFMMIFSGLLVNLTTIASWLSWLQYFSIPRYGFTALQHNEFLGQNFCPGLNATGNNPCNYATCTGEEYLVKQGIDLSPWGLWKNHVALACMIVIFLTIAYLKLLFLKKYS
Method: as §1, §2

[3] = MTT cytotoxicity assay, parental SW620 cells; assay type: cell-based; details: human
Method: as §3, §4

NCI-H460 cells = test: [3H]-mitoxantrone accumulation and efflux in parental NCI-H460 cells; assay type: cell-based, human; details: 11 at 10 or 30 μM, FTC 5.0 μM
Source text: […]. […] […]

BCRP [4] = target: T2, BCRP; details: FTC 5.0 μM; [3H]-mitoxantrone 0.10 μM; NCI-H460/MX20
Method: In the efflux study cells were incubated with 0.1 μM [^3H]-mitoxantrone as the same in the accumulation study.

SW620 Ad300 cells = test: Reversal of P-gp mediated doxorubicin resistance (MTT assay); assay type: cell-based, human; details: verapamil […]
Method: as §3, §4

T1 sequence (P08183 whole entry): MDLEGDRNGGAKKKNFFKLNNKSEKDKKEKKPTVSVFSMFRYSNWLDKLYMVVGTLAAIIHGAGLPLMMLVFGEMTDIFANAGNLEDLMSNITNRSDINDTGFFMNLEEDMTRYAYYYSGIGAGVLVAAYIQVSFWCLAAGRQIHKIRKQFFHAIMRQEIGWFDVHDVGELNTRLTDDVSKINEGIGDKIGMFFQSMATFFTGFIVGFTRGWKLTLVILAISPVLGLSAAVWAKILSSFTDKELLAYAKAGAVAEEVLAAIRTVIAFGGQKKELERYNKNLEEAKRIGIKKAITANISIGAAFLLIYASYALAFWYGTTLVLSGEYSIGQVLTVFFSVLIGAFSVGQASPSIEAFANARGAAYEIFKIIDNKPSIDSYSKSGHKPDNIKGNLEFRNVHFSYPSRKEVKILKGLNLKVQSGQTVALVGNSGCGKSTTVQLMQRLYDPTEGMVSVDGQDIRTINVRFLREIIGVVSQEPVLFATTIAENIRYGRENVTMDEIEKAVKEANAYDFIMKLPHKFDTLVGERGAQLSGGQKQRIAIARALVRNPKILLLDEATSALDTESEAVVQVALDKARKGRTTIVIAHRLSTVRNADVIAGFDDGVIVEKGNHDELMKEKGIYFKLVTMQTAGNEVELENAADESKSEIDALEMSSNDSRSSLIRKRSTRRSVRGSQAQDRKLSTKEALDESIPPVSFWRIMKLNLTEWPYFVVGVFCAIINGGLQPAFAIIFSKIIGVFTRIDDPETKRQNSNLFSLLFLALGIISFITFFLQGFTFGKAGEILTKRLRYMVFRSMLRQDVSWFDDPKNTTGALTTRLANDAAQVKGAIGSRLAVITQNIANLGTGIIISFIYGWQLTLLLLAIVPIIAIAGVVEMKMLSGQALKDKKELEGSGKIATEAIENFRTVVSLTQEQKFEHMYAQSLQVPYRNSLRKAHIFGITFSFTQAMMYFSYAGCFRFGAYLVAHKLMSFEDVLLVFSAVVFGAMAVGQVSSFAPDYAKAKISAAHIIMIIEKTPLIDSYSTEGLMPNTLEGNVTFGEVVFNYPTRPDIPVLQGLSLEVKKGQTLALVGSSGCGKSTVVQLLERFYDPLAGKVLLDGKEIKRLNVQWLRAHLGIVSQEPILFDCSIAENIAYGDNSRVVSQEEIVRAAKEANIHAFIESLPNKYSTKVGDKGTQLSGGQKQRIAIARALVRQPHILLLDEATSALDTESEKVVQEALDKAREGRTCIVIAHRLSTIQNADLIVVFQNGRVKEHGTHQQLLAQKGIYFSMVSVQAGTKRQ

Row | SMILES | FAR (fluorescence arbitrary ratio), intracellular calcein fluorescence (P-gp) [fold] | IC50 at 68 h [1] [µM] | FAR (fluorescence arbitrary ratio), mitoxantrone fluorescence (BCRP [2]; compound 20 μM vs PBS) [fold] | % FTC (inhibition of mitoxantrone efflux normalized to 10 μM FTC) (BCRP [2]; compound 20 μM) [% FTC] | IC50 at 68 h [3] [µM] | also measured
1 | CCOCN1C(=O)C(c2ccc(O)cc2)=C(c2ccc(O)cc2)C1(O)C(=O)OC (stereo not drawn) [Compound 4, ianthellidone D] | 0.60 | > 30 | 1.15 | 6.66 | > 30 | 
2 | COc1ccc2c3c([nH]c2c1)[C@H](C=C(C)C)N1C(=O)[C@@H]2CCCN2C(=O)[C@@H]1C3 [FTC, Fumitremorgin C, reference compound] |  |  |  |  |  | effect on intracellular [3H]-mitoxantrone levels, accumulation phase (NCI-H460 cells): neither 11 (10 or 30 μM) nor FTC (5.0 μM) significantly changed intracellular [^3H]-mitoxantrone levels; effect on intracellular [3H]-mitoxantrone levels, efflux phase (NCI-H460 cells): Neither 11 nor FTC had a significant effect; increase in [3H]-mitoxantrone accumulation (BCRP [4]): 2.2 fold; FAR (fluorescence arbitrary ratio), mitoxantrone fluorescence (BCRP [2]; FTC 10 μM (positive control) vs PBS): 3.17 fold; % FTC (inhibition of mitoxantrone efflux normalized to 10 μM FTC) (BCRP [2]; FTC 10 μM (positive control, set as 100%)): 100 % FTC
3 | COC(=O)c1c(-c2ccc(OC)cc2)c(-c2ccc(OC)cc2)cn1CC(=O)c1ccc(OC)cc1 [Compound 19, 4′,4″-dimethyl-lamellarin O] |  |  |  |  |  | IC50 (BCRP [2]): > 100 µM
4 | CCOC1(C(=O)OC)NC(=O)C(c2ccc(O)cc2)=C1c1ccc(O)cc1 (stereo not drawn) [Compound 2, ianthellidone B] | 0.52 | > 30 | 1.07 | 3.13 | > 30 | 
5 | COC(=O)c1c(Br)c(Br)c(Br)n1CC(=O)c1ccc(OC)cc1 [Compound 16] |  |  | 1.20 | 5.45 |  | 
6 | COc1ccc(CCN(C)CCCC(C#N)(c2ccc(OC)c(OC)c2)C(C)C)cc1OC (stereo not drawn) [verapamil, reference compound] |  |  |  |  |  | DMF (dose-modifying factor), increase in sensitivity towards doxorubicin (SW620 Ad300 cells): 8.8 fold

More lines, main results first:

Row | FAR (fluorescence arbitrary ratio), intracellular calcein fluorescence (P-gp) [fold] | SMILES | IC50 at 68 h [1] [µM] | FAR (fluorescence arbitrary ratio), mitoxantrone fluorescence (BCRP [2]; compound 20 μM vs PBS) [fold] | % FTC (inhibition of mitoxantrone efflux normalized to 10 μM FTC) (BCRP [2]; compound 20 μM) [% FTC] | IC50 at 68 h [3] [µM] | also measured
7 | 0.67 | COC(=O)C1(O)OC(=O)C(c2ccc(O)cc2)=C1c1ccc(O)cc1 (stereo not drawn) [Compound 7, ianthellidone G] | > 30 | 1.09 | 4.06 | > 30 | 
8 | 0.61 | COC(=O)c1c(-c2ccc(O)cc2)c(-c2ccc(O)cc2)cn1CC(=O)c1ccc(O)cc1 [Compound 9, lamellarin O1] | > 30 | 1.23 | 10.6 | > 30 | 
9 | 0.60 | COC(=O)C1(OC)OC(=O)C(c2ccc(O)cc2)=C1c1ccc(O)cc1 (stereo not drawn) [Compound 8, ianthellidone H] | > 30 | 1.13 | 6.06 | > 30 | 
10 | 0.59 | CCOC(=O)CN1C(=O)C(c2ccc(O)cc2)=C(c2ccc(O)cc2)C1(O)C(=O)OC (stereo not drawn) [Compound 5, ianthellidone E] | > 30 | 1.14 | 6.20 | > 30 | 
